In patent EP0354522A1, “Use of alpha-aminoboronic acid derivatives in prevention and treatement of viral diseases” (HOECHST AKTIENGESELLSCHAFT, priority 1988, dated 1990):

Biological target: T1, HIV-Protease (Human immunodeficiency virus type 1 group M subtype B, UniProt P04585)
T1 construct: Max-Planck-Institut für Molekulare Genetik, Berlin
Experiment: HIV protease test (cleavage of heptapeptide Ser-Phe-Asn-Phe-Pro-Gln-Ile, HPLC quantification of Ser-Phe-Asn-Phe)
Format: biochemical
Settings: 2 h, 37°C; for IC50: cloned HIV protease, pH ca. 6,0; for activity at 100 µM: residual enzyme activity at 10^-4 M inhibitor, 100 % = mean of runs without inhibitor, pH ca. 6,0, 1 % DMSO, read-out: Restakt. bei 10^-4 M
Excerpt: Als synthetisches Substrat ist ein Heptapeptid der Sequenz Ser-Phe-Asn-Phe-Pro-Gln-Ile geeignet. Diese Sequenz tritt im natürlichen Substrat der Protease auf und liefert bei der autokatalytischen Freisetzung nach einer Phe-Pro-Spaltung den N-terminalen Beginn der Proteasesequenz (Pro-Gln-Ile...).
Es wird eine klonierte HIV-Protease (Max-Planck-Institut für Molekulare Genetik, Berlin) benutzt. [drawing 5]
Von den Reaktionsprodukten wird Ser-Phe-Asn-Phe zur Abtrennung und quantitativen Bestimmung mittels HPLC herangezogen.
Nach 2 Stunden bei 37°C werden die Ansätze mit 225 µl HPLC-Elutionsmittel (s.u.) gestoppt. Etwa 150 µl des zentrifugierten Überstands (Eppendorf-Zentrifuge) werden in Mikrovials gefüllt. Das Injektionsvolumen für die HPLC-Trennung beträgt 20 µl. Ser-Phe-Asn-Phe wird durch Vergleich mit einem externen Standard bekannter Konzentration (0,5 µg/ 20 µl) quantitativ bestimmt und stellt die Meßgröße der Enzymaktivität (µg Tetrapeptid pro 20 µl Meßprobe) dar. Bezugswert (= 100 % Enzymaktivität) ist der Mittelwert aus 2 oder mehr Ansätzen ohne Inhibitor. Als Standard-Inhibitor wird Pepstatin A (10⁻⁴ oder 10⁻⁵ M) verwendet.
• a) Substratlösung: 2 mg Ser-Phe-Asn-Phe-Pro-Gln-Ile werden in 1 ml MGTE 15-Puffer gelöst. • b) Testsubstanzen: Diese werden 10⁻² oder 10⁻³ M in Dimethylsulfoxid (DMSO) gelöst und 1 : 40 mit MGTE 15-Puffer verdünnt; 10 µl dieser Lösung werden pro Ansatz verwendet; die Endkonzentration des Präparates beträgt 10⁻⁴ bzw. 10⁻⁵ M; die DMSO-Konzentration in allen Testansätzen ist 1 %. Für IC₅₀-Bestimmungen wird das Präparat, ausgehend von 10⁻² M, mit 100 % DMSO in der geeigneten Weise verdünnt. • c) Proteaselösung: Das Enzym wird mit MGTE 25-Puffer auf eine geeignete Konzentration verdünnt. • d) MGTE 15/25-Puffer 20 mM Morpholinoethansulfonsäure (MES) 15 (25) % (w/v) Glyzerin 0,1 % (v/v) Triton® X 100 (vgl. Merck Index 10, 6601) 5 mM EDTA 0,5 M NaCl 1 mM Dithiothreit (nur für MGTE 25) 1 mM Phenylmethylsulfonylfluorid (PMSF) Der pH-Wert soll ca. 6,0 betragen. • e) HPLC-Elutionsmittel: Eine 0,1 M Phosphorsäure-Lösung wird mit Triethylamin auf pH 2,5 eingestellt. Aus dieser Lösung wird ein Phosphorsäure-Acetonitril-Gemisch mit 22,6 Gewichts-Prozent Acetonitril hergestellt.
Säule: Radial Pak LC Cartridge, 8 mm/C18, 5 µ (der Fa. Waters, USA). Fluß: 1 ml/min Detektoreinstellung: 215 nm, 0,08 AU Zeit pro Analyse: 12 min; Retentionszeiten: Heptapeptid ca. 9,5 min, Tetrapeptid ca. 5,2 min Laufmittel: 77,4 Gew.-% 0,1 M H₃PO₄/pH 2,5 22,6 Gew.-% Acetonitril

SMILES	IC50	activity at 100 µM
CC(C)CC(=O)N[C@@H](Cc1cccs1)C(=O)N[C@@H](Cc1c[nH]cn1)C(=O)NC(CC1CCCCC1)B1OC(C)(C)C(C)(C)O1 (stereo partly shown) [Beispiel 4]		96%
CCC[C@H](NC(=O)[C@H](Cc1ccccc1)NC(=O)CC(C)C)C(=O)NC(Cc1cccc2ccccc12)B1OC(C)(C)C(C)(C)O1 (stereo partly drawn) [Beispiel 10, Iva-Phe-Nva-[(1-Naphthylmethyl),(4,4,5,5-tetramethyl-1,3,2-dioxaborolan-2-yl)]methylamid]		77%
CC(C)CC(=O)N[C@@H](Cc1ccccc1)C(=O)N(C)[C@@H](Cc1ccccc1)C(=O)NC(CC1CCCCC1)B1OC(C)(C)C(C)(C)O1 (stereo partly shown) [Beispiel 16]		70%
CC(C)CC(NC(=O)[C@H](Cc1c[nH]cn1)NC(=O)C(Cc1cccc2ccccc12)Cc1cccc2ccccc12)B1OC(C)(C)C(C)(C)O1 (stereo partly drawn) [Beispiel 19, Bis-(1-Naphthylmethyl)acetyl-His-[3-methyl,l-(4,4,5,5-tetramethyl-1,3,2-dioxaborolan-2-yl)]butylamid]		37%
CC(C)[C@H](NC(=O)C(Cc1ccccc1)CS(=O)(=O)C(C)(C)C)C(=O)NC(CC1CCCCC1)B1OC(C)(C)C(C)(C)O1 (stereo partly shown) [Beispiel 38, (2-Benzyl,3-t-butylsulfonyl)propionyl-Val-[Cyclohexylmethyl,(4,4,5,5-tetramethyl-1,3,2-dioxaborolan-2-yl)]methylamid]	9 µM	11%
CCC[C@H](NC(=O)C(Cc1cccs1)CS(=O)(=O)C(C)(C)C)C(=O)NC(CC1CCCCCC1)B1OC(C)(C)C(C)(C)O1 (stereo partly shown) [Beispiel 40, [3-t-Butylsulfonyl,2-(2-thienylmethyl)]propionyl-Nva-[Cycloheptylmethyl,(4,4,5,5-tetramethyl-1,3,2-dioxaborolan-2-yl)]methylamid]		46%
CCC[C@H](NC(=O)C(Cc1cccc2ccccc12)CS(=O)(=O)C(C)(C)C)C(=O)NC(CC(C)C)B1OC(C)(C)C(C)(C)O1 (stereo partly shown) [Beispiel 41, [3-t-Butylsulfonyl,2-(1-naphthylmethyl)]propionyl-Nva-[3-methyl,1-(4,4,5,5-tetramethyl-1,3,2-dioxaborolan-2-yl)]butylamid]		35%
CCC[C@H](NC(=O)C(Cc1ccccc1)CS(=O)(=O)C(C)(C)C)C(=O)NC(Cc1ccccc1)B1OC(C)(C)C(C)(C)O1 (stereo partly shown) [Beispiel 44]		72%
CC1(C)OB(C(Cc2ccccc2)NC(=O)[C@H](CC(N)=O)NC(=O)C(Cc2ccccc2)CS(=O)(=O)C(C)(C)C)OC1(C)C (stereo partly shown) [Beispiel 45, (2-Benzyl,3-t-butylsulfonyl)propionyl-Asn-[Benzyl,(4,4,5,5-tetramethyl-1,3,2-dioxaborolan-2-yl)]methylamid]	100 µM	49%
CCC[C@H](NC(=O)C(Cc1ccccc1)CS(=O)(=O)C(C)(C)C)C(=O)NC(B1OC(C)(C)C(C)(C)O1)C1CCCCCC1 (stereo partly shown) [Beispiel 46]	40 µM	45%
CCC[C@H](NC(=O)C(Cc1cccc2ccccc12)CS(=O)(=O)C(C)(C)C)C(=O)NC(CC1CCCC1)B1OC(C)(C)C(C)(C)O1 (stereo partly shown) [Beispiel 47, [3-t-Butylsulfonyl,2-(1-naphthylmethyl)]propionyl-Nva-[Cyclopentylmethyl,(4,4,5,5-tetramethyl-1,3,2-dioxaborolan-2-yl)]methylamid]	10 µM	16%
CCC[C@H](NC(=O)C(Cc1cccc2ccccc12)CS(=O)(=O)C(C)(C)C)C(=O)NC(CC(CC)CC)B1OC(C)(C)C(C)(C)O1 (stereo partly shown) [Beispiel 48, [3-t-Butylsulfonyl,2-(1-naphthylmethyl)]propionyl-Nva-[3-Ethyl,1-(4,4,5,5-tetramethyl-1,3,2-dioxaborolan-2-yl)]pentylamid]	60 µM	32%
CCC[C@H](NC(=O)C(Cc1ccccc1)CS(=O)(=O)C(C)(C)C)C(=O)NC(CC(CC)CC)B1OC(C)(C)C(C)(C)O1 (stereo partly shown) [Beispiel 49, (2-Benzyl,3-t-butylsulfonyl)propionyl-Nva-[3-Ethyl,1-(4,4,5,5-tetramethyl-1,3,2-dioxaborolan-2-yl)]pentylamid]		46%

The next lines start with the values.

IC50	activity at 100 µM	SMILES
40 µM	28%	CCC[C@H](NC(=O)[C@H](Cc1ccccc1)NC(=O)CC(C)C)C(=O)NC(CC1CCCCC1)B1OC(C)(C)C(C)(C)O1 (stereo partly drawn) [Beispiel 1, Iva-Phe-Nva-[Cyclohexylmethyl,(4,4,5,5-tetramethyl-1,3,2-dioxaborolan-2-yl)]methylamid]
	74%	CCCC[C@H](NC(=O)[C@H](Cc1ccccc1)NC(=O)CC(C)C)C(=O)NC(CC1CCCCC1)B1OC(C)(C)C(C)(C)O1 (stereo partly drawn) [Beispiel 2, Iva-Phe-Nle-[Cyclohexylmethyl,(4,4,5,5-tetramethyl-1,3,2-dioxaborolan-2-yl)]methylamid]
	61%	CC(C)CC(=O)N[C@@H](Cc1ccccc1)C(=O)N[C@@H](Cc1c[nH]cn1)C(=O)NC(CC1CCCCC1)B1OC(C)(C)C(C)(C)O1 (stereo partly drawn) [Beispiel 3, Iva-Phe-His-[Cyclohexylmethyl,(4,4,5,5-tetramethyl-1,3,2-dioxaborolan-2-yl)]methylamid]
	96%	CCC[C@H](NC(=O)[C@H](Cc1ccccc1)NC(=O)CC(C)C)C(=O)NC(CC1CCCCCCC1)B1OC(C)(C)C(C)(C)O1 (stereo partly shown) [Beispiel 11]
	64%	CCCC(NC(=O)C(Cc1ccccc1)NC(=O)CC(C)C)C(=O)NC(CC1CCCCC1)B1OC2CC3CC(C3(C)C)C2(C)O1 (stereo not drawn) [Beispiel 12, Iva-Phe-Nva-[Cyclohexylmethyl, (-)-Pinandioxyboryl]methylamid]
	75%	CCC[C@H](NC(=O)[C@H](Cc1ccccc1)NC(=O)CC(C)C)C(=O)NC(CC1CCC(C)CC1)B1OC(C)(C)C(C)(C)O1 (stereo partly drawn) [Beispiel 14, Iva-Phe-Nva-[(4-Methylcyclohexyl)methyl,(4,4,5,5-tetramethyl-1,3,2-dioxaborolan-2-yl)]methylamid]
	86%	CCC[C@H](NC(=O)[C@H](Cc1ccccc1)NC(=O)CC(C)C)C(=O)NC(CC1CCCCCC1)B1OC(C)(C)C(C)(C)O1 (stereo partly drawn) [Beispiel 15, Iva-Phe-Nva- (Cycloheptylmethyl,(4,4,5,5-tetramethyl-1,3 2-dioxaborolan-2-yl)]methylamid]
200 µM	52%	CC(C)CC(=O)N[C@@H](Cc1ccccc1)C(=O)N[C@@H](Cc1c[nH]cn1)C(=O)NC(CC1CCCCCCC1)B1OC(C)(C)C(C)(C)O1 (stereo partly drawn) [Beispiel 17, Iva-Phe-His-[Cyclooctylmethyl,(4,4,5,5-tetramethyl-1,3,2-dioxaborolan-2-yl)]methylamid]
	36%	CC(C)CC(=O)N[C@@H](Cc1ccccc1)C(=O)N[C@@H](Cc1c[nH]cn1)C(=O)NC(CC1CCCCCC1)B1OC(C)(C)C(C)(C)O1 (stereo partly drawn) [Beispiel 18, Iva-Phe-His-[Cycloheptylmethyl,(4,4,5,5-tetramethyl-1,3,2-dioxaborolan-2-yl)]methylamid]
40 µM	22%	CCC[C@H](NC(=O)C(Cc1ccccc1)CS(=O)(=O)C(C)(C)C)C(=O)NC(CC1CCCCC1)B1OC(C)(C)C(C)(C)O1 (stereo partly shown) [Beispiel 35, (2-Benzyl,3-t-butylsulfonyl)propionyl-Nva-[Cyclohexylmethyl,(4,4,5,5-tetramethyl-1,3,2-dioxaborolan-2-yl)]methylamid]
